Data as given in US12686664B2, “SOCE inhibitors and therapeutic uses thereof” (Institut National de la Santé et de la Recherche Médicale …, priority 2020, dated 2026).
Where a name gives a salt, the structure may show the parent alone. Read-outs that look alike come from different tables or passages of the source. Marks after values point to notes of the source that are not given here.

System: store-operated Ca^2+ entry in PLP-B lymphocytes
Test: Store-operated Ca2+ entry after thapsigargin depletion of ER Ca2+ stores in PLP-B lymphocytes
Assay type: cell-based
Experimental: The effects of the molecules developed were tested on PLP-B lymphocytes. Store-operated Ca^2+ entry was induced by depletion of Endoplasmic Reticulum Ca^2+ stores (ER Ca^2+ stores) with thapsigargin (Tg) in a Ca^2+-free medium and measured following the addition of 1.8 mM of CaCl2) in the extracellular medium. The results are compared to the results obtained for known SOCE inhibitors SKF-96365, GSK-7975A, Synta 66.

[1] = Lymphocyte, 10 μM, PLP-B lymphocytes, % of inhibition (−) or activation, DMSO control 100%, read-out: Effect on amplitude of SOCE Peak
[2] = Lymphocyte, 10 μM, thapsigargin (Tg) peak, PLP-B lymphocytes, % of inhibition (−) or activation, read-out: Effect on amplitude of Tg Peak
[3] = Lymphocyte, 50 μM, PLP-B lymphocytes, % of inhibition (−) or activation, DMSO control 100%, read-out: Effect on amplitude of SOCE Peak
[4] = Lymphocyte, 50 μM, thapsigargin (Tg) peak, PLP-B lymphocytes, % of inhibition (−) or activation, read-out: Effect on amplitude of Tg Peak
[5] = Lymphocyte, 100 μM, PLP-B lymphocytes, % of inhibition (−) or activation, DMSO control 100%, read-out: Effect on amplitude of SOCE Peak
[6] = Lymphocyte, 100 μM, thapsigargin (Tg) peak, PLP-B lymphocytes, % of inhibition (−) or activation, read-out: Effect on amplitude of Tg Peak
[7] = Lymphocyte, PLP-B lymphocytes, % of inhibition (−) or activation, DMSO control 100%, read-out: Effect on amplitude of SOCE Peak
[8] = Lymphocyte, thapsigargin (Tg) peak, PLP-B lymphocytes, % of inhibition (−) or activation, read-out: Effect on amplitude of Tg Peak
[9] = 10 μM, PLP-B lymphocytes, % of inhibition (−) or activation, DMSO control 100%
[10] = 10 μM, thapsigargin (Tg) peak, PLP-B lymphocytes, % of inhibition (−) or activation
[11] = 50 μM, PLP-B lymphocytes, % of inhibition (−) or activation, DMSO control 100%
[12] = 50 μM, thapsigargin (Tg) peak, PLP-B lymphocytes, % of inhibition (−) or activation
[13] = 100 μM, PLP-B lymphocytes, % of inhibition (−) or activation, DMSO control 100%
[14] = 100 μM, thapsigargin (Tg) peak, PLP-B lymphocytes, % of inhibition (−) or activation

Molecule | inhibition at 10 µM [1] [%] | inhibition at 10 µM [2] [%] | inhibition at 50 µM [3] [%] | inhibition at 50 µM [4] [%] | inhibition at 100 µM [5] [%] | inhibition at 100 µM [6] [%] | also measured
Oc1ccc(Cn2cnc3ccccc32)cc1 [9αa, 1-(4-hydroxyphenylmethyl)-1H-Benzo[d]imidazol] | -2 | -13 | 4 | 1 | -3 | 12 | –
FC(F)(F)c1ccn(CCc2ccc(OCCCc3ccccc3)cc2)n1 [6βt DAD 3.363] | – | – | 7.7 | – | 19.1 | – | –
COc1ccc(COc2ccc(CCn3cnc4ccccc43)cc2)cc1 [6αz DAD 4-472] | 15.4 | 1.6 | 13.7 | 1.9 | -5.9 | 1.5 | –
COc1ccc(COc2ccc(CCn3ccc(C(F)(F)F)n3)cc2)cc1 [6βq DAD 2.333] | – | – | 5 | – | 37 | – | –
Oc1ccc(CCn2ncc3ccccc32)cc1 [12αe, 1-(4-Hydroxyphenylethyl)-1H-indazole hydrochloride] | 5 | 11 | 18 | 29 | 8 | 28 | –
CS(=O)(=O)Oc1ccc(Cn2cnc3ccccc32)cc1 [8αa, 4-((1H-Benzo[d]imidazol-1-yl)methyl)phenyl methanesulfonate] | 20 | -1 | 9 | -5 | 23 | 7 | –
COc1cccc(CCOc2ccc(CCn3cnc4ccccc43)cc2)c1 [6αad DAD 4-567] | 28.1 | 5.7 | 81.7 | 9.1 | 84.3 | – | inhibition at 0.1 µM [7]: -12.9%; inhibition at 1 µM [7]: -2.9%; inhibition at 1 µM [8]: 16.2%
COc1ccc(CCOc2ccc(CCn3cccn3)cc2)cc1 [6βn DAD 2.307] | -6.5 | – | 7.2 | – | 62 | – | –
Oc1ccc(CCn2cncn2)cc1 [12βa, 1-(4-Hydroxyphenylethyl)-1H-1,2,4-triazole hydrochloride] | 8 | 8 | 10 | 14 | 12 | 8 | –
COc1ccc(CCOc2ccc(CCn3ncc4ccccc43)cc2)cc1 [6αb DAD 4-573, 1-(4-(4-Methoxyphenethoxy)phenethyl)-1H-indazole] | -14 | 8 | – | 5 | 30 | 22 | percent change in peak amplitude vs DMSO control (negative = inhibition, positive = activation) at 50 µM [3]: 0%
1-(4-(Methoxymethoxy)-2-(trifluoromethyl)-1H-benzo[d]imidazole [6αaf VAL3.33] | – | – | – | – | – | – | Effect on amplitude of SOCE peak [9]: 40.0# %; Effect on amplitude of Tg Peak [10]: −29.0# %; Effect on amplitude of SOCE peak [11]: 1.0%; Effect on amplitude of Tg Peak [12]: −34.0# %; Effect on amplitude of SOCE peak [13]: −2.0%; Effect on amplitude of Tg Peak [14]: −38.0# %
Fc1ccc(CCOc2ccc(CCn3cnc4ccccc43)cc2)cc1 [6αd DAD 4-568] | 7.8 | 8.5 | -1.3 | 5.3 | 64 | 15.1 | –
COc1ccc(COc2ccc(CCn3cnc(C(F)(F)F)n3)cc2)cc1 [6βg DAD 3.472] | – | – | 5 | 18 | 37 | 25 | –
COCOc1ccc(CCn2ncc3ccccc32)cc1 [6αae VAL3.32, 1-(4-(Methoxymethoxy)phenethyl)-1H-indazole] | -39 | 26 | -23 | 19 | 24 | 27 | –
COc1ccc(CCCOc2ccc(CCn3nc(C(F)(F)F)cc3C(F)(F)F)cc2)cc1 [6βw DAD 2.335] | 4.6 | – | -0.1 | – | 11.8 | – | –
COc1ccc(CCCOc2ccc(CCn3c(C(F)(F)F)nc4cc(N)ccc43)cc2)cc1 [6αu VAL 1-75] | -6 | -5 | 30 | -11 | 68 | -5 | –
COc1ccc(CCOc2cccc(CCn3cnc4ccccc43)c2)cc1 [6αp DAD 4-552] | – | – | 29 | 15 | 71 | 7 | –
Oc1ccc(Cn2c(C(F)(F)F)nc3ccccc32)cc1 [9αc, 1-(4-hydroxyphenylmethyl)-2-trifluoromethyl-1H-Benzo[d]imidazol] | 23 | 6 | 16 | -1 | 33 | -6 | –
COc1ccc(CCCOc2ccc(CCn3cncn3)cc2)cc1 [Compound 6βf] | – | 13 | – | 18 | – | – | Effect on amplitude of SOCE peak [13]: −10.0%
CS(=O)(=O)Oc1ccc(Cn2cccn2)cc1 [8βa, 4-((1H-Pyrazol-1-yl)methyl)phenylmethanesulfonate] | – | – | – | – | – | – | Effect on amplitude of SOCE peak [9]: −30.0# %; Effect on amplitude of Tg Peak [10]: −20.0# %; Effect on amplitude of SOCE peak [11]: −27.0# %; Effect on amplitude of Tg Peak [12]: −14.0// %; Effect on amplitude of SOCE peak [13]: −25.0# %; Effect on amplitude of Tg Peak [14]: −12.0// %
COCOc1ccc(CCn2cnc3ccccc32)cc1 [6αad VAL3.31, 1-(4-(Methoxymethoxy)phenethyl)-1H-benzo[d]imidazole] | -51 | 10 | -54 | 9 | -5 | 15 | –
Fc1ccc2c(c1)ncn2CCc1ccc(OCCc2ccc(OC3CCCCO3)cc2)cc1 (stereo not drawn) [11αc, 5-Fluoro-1-(4-(4-((tetrahydro-2H-pyran-2-yl)oxy)phenethoxy)phenethyl)-1H-benzo[d]imidazole] | 31 | 10 | 54 | 12 | 35 | -3 | inhibition at 0.1 µM [7]: -67%; inhibition at 0.1 µM [8]: -16%; inhibition at 1 µM [7]: -26%; inhibition at 1 µM [8]: -4%; IC50 (Lymphocyte, SOCE in PLP-B lymphocytes, average of three assays, ±0.5 μM): 1600 nM
Oc1ccc(CCn2cnc3ccccc32)cc1 [12αa, 1-(4-Hydroxyphenylethyl)-1H-benzo[d]imidazol hydrochloride] | -2.2 | -2.7 | 0.9 | -4.3 | -2.5 | -7.4 | –
COc1ccc(CCOc2ccc(CCn3cnc4c(Cl)cc(C(F)(F)F)cc43)cc2)cc1 [6αe DAD 4-548, 4-Chloro-1-(4-(4-methoxyphenethoxy)phenethyl)-6-(trifluoromethyl)-1H-benzo[d]imidazole] | – | – | 28 | -5 | 9 | -1 | –
Nc1ccc2c(c1)nc(C(F)(F)F)n2CCc1ccc(OCCCc2ccccc2)cc1 [6αv VAL 1-64] | -8 | – | 25 | -11 | 77 | -2 | percent change in peak amplitude vs DMSO control (negative = inhibition, positive = activation) at 10 µM [2]: 0%
CS(=O)(=O)Oc1ccc(Cn2c(C(F)(F)F)nc3ccccc32)cc1 [8αc, 4-((2-(Trifluoromethyl)-1H-benzo[d]imidazol-1-yl)methyl)phenyl methane sulfonate] | 14 | -10 | 9 | -10 | 24 | 32 | –
COc1ccc(CCOc2ccc(CCn3ccc(C(F)(F)F)n3)cc2)cc1 [Compound 6βs] | 13 | – | 34 | 6 | 64 | 10 | –
COc1ccc(CCOc2ccc(CCn3nc(C(F)(F)F)cc3C(F)(F)F)cc2)cc1 [6βv DAD 2.266] | – | – | 29 | – | 30 | – | –
